Data: ChEMBL document CHEMBL1201862, “PubChem BioAssay data set” (2004)
The source made the active and inactive calls. Non-standard residues stand in square brackets, D forms with d. Residues, ends and D or L forms follow the SMILES beside them. ξ: configuration not given here. *: point of attachment. ξF = NC(Cc1ccccc1)C(=O)O; Cbz = O=C(OCc1ccccc1)*

Key:
[1] = molecular target: FAD-linked sulfhydryl oxidase ALR (Homo sapiens, UniProt P55789); assay: inhibitors of human ALR sulfhydryl oxidase, dose response, biochemical, H2O2 detection, luminescence, cherry-pick (AID 493248)
[2] = molecular target: Nonstructural protein 1 (Influenza A virus, UniProt Q194T2); assay type: functional, Influenza A virus (A/California/07/2009(H1N1))
[3] = cells; assay type: functional, cell-based
[4] = cells; assay type: functional, cell-based; remark: listed apart in the source
[5] = molecular target: Luciferin 4-monooxygenase (Photinus pyralis, UniProt P08659); assay: firefly luciferase enzyme inhibitors, dose response, biochemical, luminescence (AID 1891)
[6] = Luminescence Cell-Based Dose Confirmation HTS to Identify Inhibitors of Platelet Dense Granule Release. [Related pubchem assays: 1663 (Primary HTS), 1678 (Summary of Project)]; assay type: functional
[7] = molecular target: T1, Ubiquitin-conjugating enzyme E2 N (Homo sapiens, UniProt P61088); assay type: functional;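 note: Dose-response confirmation in a TR-FRET assay detecting UBC13-driven polyubiquitin chain formation, inhibition measured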
T1 sequence (P61088 whole entry): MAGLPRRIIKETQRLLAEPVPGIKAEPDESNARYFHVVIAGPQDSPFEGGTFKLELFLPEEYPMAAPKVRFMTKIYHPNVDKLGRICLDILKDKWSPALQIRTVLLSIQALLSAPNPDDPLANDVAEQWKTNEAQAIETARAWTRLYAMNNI

[8] = molecular target: Cytochrome P450 3A4 (Homo sapiens, UniProt P08684);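 note: CYP3A4 tested as one member of a cytochrome P450 panel screen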
[9] = molecular target: T2, Replicative DNA helicase DnaB (Mycobacterium tuberculosis, UniProt P9WMR3); assay: DnaB intein splicing inhibitors, dose response, biochemical, cell-free fluorescence (AID 449749); assay type: functional
T2 sequence (P9WMR3 whole entry): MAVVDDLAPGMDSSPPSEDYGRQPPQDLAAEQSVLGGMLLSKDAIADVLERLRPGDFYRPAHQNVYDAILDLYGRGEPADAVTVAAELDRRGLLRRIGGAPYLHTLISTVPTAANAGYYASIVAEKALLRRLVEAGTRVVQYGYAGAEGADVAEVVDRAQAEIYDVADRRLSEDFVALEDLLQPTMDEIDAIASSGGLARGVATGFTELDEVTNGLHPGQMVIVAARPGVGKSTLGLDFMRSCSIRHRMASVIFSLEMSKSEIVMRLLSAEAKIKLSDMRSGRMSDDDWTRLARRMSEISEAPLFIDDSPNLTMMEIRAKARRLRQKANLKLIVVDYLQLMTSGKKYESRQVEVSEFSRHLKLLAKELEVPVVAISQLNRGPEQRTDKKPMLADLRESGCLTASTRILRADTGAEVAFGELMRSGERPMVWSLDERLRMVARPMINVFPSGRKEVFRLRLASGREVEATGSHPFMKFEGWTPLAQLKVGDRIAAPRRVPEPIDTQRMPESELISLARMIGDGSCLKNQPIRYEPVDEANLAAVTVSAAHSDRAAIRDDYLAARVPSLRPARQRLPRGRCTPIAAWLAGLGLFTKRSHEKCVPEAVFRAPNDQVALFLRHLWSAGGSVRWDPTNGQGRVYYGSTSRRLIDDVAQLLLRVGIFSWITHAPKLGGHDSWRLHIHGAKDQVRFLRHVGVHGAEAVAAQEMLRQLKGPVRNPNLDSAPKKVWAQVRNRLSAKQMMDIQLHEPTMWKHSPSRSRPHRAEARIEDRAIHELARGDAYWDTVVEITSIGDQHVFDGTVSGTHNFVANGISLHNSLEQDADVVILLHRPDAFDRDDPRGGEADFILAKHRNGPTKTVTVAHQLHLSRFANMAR

[10] = HEp-2 cell cytotoxicity, dose response, cytotoxicity control for RSV inhibitor project, HTS (AID 2410); assay type: functional; details: human respiratory syncytial virus
[11] = molecular target: T3, Protein RecA (Mycobacterium tuberculosis, UniProt P9WHJ3); assay: Fluorescence Cell-Free Homogeneous Dose Retest to Identify Inhibitors of RecA-Intein Splicing Activity. [Related pubchem assays (depositor defined):AID2097, AID2223, AID489010, AID492950]; assay type: functional
T3 sequence (P9WHJ3 whole entry): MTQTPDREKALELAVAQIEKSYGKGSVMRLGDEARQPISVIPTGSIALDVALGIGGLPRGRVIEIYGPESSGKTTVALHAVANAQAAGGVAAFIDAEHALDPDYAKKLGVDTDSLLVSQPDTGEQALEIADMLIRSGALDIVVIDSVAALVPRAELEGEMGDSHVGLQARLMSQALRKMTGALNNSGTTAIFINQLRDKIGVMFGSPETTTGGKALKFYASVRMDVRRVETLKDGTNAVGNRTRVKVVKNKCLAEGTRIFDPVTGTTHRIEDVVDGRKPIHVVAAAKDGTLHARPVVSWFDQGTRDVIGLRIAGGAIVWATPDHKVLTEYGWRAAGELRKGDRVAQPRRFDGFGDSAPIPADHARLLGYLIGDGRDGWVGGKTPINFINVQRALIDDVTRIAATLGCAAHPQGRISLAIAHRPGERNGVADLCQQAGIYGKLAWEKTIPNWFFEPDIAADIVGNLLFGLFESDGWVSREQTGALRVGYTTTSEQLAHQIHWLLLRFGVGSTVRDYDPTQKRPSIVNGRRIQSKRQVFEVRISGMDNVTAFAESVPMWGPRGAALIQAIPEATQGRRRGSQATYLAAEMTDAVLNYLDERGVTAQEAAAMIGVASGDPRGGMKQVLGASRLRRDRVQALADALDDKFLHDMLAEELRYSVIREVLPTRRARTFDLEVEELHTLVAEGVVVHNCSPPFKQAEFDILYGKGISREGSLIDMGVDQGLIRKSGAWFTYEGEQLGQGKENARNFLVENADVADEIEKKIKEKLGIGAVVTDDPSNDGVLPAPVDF

[12] = molecular target: T4, Heat shock factor protein 1 (Mus musculus, UniProt P38532); assay: inhibition of MG132-induced HSE-luciferase signal, confirmation, cell-based, NIH3T3, luminescence, dose retest (AID 2382); assay type: functional;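 note: NIH3T3 fibroblasts with HSF1-driven luciferase reporter stressed by proteasome inhibitor MG132; luminescence from HSF1-driven luciferase expression after 8 hours of MG132 stress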
T4 sequence (P38532 whole entry): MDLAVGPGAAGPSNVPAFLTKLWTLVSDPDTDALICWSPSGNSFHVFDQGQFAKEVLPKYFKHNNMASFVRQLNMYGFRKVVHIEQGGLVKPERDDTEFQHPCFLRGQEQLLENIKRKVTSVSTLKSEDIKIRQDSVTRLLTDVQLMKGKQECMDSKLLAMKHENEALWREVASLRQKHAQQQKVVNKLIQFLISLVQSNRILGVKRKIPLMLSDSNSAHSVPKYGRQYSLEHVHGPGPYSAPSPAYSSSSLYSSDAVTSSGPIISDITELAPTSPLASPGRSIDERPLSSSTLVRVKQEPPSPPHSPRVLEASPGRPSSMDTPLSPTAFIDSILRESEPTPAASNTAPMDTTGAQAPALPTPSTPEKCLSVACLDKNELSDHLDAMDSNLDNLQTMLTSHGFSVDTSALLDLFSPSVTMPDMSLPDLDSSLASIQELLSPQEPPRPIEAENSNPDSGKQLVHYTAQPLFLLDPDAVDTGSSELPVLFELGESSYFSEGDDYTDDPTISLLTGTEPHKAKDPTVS

[13] = P. falciparum Dd2 growth inhibitors, dose response, SYBR Green, cherry-picked samples (AID 1159567); assay type: functional, cell-based

Sequence of FAD-linked sulfhydryl oxidase ALR (P55789 whole entry): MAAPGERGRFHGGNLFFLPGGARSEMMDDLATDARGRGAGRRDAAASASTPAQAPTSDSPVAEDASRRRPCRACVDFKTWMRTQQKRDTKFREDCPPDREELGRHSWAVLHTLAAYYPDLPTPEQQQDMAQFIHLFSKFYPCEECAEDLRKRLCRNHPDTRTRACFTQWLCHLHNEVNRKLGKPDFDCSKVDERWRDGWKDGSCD
Sequence of Nonstructural protein 1 (Q194T2 whole entry): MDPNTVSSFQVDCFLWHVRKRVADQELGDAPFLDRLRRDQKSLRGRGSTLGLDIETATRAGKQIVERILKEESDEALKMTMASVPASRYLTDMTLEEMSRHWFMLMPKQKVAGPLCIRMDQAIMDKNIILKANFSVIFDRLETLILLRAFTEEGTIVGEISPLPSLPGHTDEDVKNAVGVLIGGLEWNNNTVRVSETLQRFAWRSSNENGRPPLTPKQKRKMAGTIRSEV
Sequence of Luciferin 4-monooxygenase (P08659 whole entry): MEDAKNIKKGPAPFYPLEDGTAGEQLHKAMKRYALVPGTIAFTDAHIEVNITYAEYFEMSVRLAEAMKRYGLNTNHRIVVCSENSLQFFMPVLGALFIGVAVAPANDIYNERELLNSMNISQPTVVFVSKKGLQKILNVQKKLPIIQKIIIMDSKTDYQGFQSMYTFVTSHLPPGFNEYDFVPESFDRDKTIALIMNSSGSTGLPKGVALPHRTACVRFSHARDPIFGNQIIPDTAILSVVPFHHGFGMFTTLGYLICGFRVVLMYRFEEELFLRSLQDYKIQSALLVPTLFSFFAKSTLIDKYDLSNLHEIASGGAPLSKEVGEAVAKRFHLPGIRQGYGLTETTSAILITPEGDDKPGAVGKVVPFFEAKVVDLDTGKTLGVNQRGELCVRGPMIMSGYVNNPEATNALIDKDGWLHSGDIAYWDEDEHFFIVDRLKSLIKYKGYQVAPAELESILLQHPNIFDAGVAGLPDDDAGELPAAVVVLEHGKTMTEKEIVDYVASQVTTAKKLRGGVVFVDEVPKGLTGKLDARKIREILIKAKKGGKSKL
Sequence of Cytochrome P450 3A4 (P08684 whole entry): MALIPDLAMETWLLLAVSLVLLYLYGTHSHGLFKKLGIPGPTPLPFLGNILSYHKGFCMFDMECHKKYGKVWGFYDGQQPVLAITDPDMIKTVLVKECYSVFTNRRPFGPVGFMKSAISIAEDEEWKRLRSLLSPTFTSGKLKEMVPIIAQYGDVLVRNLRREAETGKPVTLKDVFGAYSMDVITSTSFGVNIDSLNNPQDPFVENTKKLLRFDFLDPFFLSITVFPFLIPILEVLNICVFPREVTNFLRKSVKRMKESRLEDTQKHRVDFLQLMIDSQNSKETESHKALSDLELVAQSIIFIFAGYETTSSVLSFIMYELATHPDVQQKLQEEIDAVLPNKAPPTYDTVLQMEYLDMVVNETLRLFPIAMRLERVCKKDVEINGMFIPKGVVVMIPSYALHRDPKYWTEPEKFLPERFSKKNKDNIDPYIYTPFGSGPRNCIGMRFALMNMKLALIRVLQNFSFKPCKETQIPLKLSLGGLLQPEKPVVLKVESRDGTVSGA

Cc1ccc(N2C(=O)CSC2c2cccnc2)cc1F (configuration not stated)
AC50 [1]: 0.193 µM (active)

OCCN(Cc1cccnc1)Cc1ccccn1
IC50 [2]: 4.64 µM (active)

CC(C)N(c1ccccc1)c1ncnc(NCCC(=O)O)c1[N+](=O)[O-]
EC50 [3]: > 350 µM (not active) | EC50 [4]: > 350 µM (not active)

CCOC(=O)C1CCN(c2ncnc3cc(OC)c(OC)cc23)CC1
EC50 [5]: > 112 µM (not active) | EC50 [6]: 9.14 µM (active)

CCOC(=O)C1(Cc2cccc(OC)c2)CCN(CC=C(C)C)CC1
EC50 [5]: > 112 µM (not active) | EC50 [6]: 21.4 µM (active)

COc1cc2c(cc1OC)C(c1ccccc1)N(S(C)(=O)=O)CC2 (configuration not stated)
EC50 [3]: > 350 µM (not active) | EC50 [4]: > 350 µM (not active)

Cc1cccc(Sc2c([N+](=O)[O-])ncn2C)c1
AC50 [1]: 0.265 µM (active)

Sc1nnc(-c2cccc3ccccc23)n1-c1cccnc1
AC50 [1]: 8.24 µM (active)

CCOC(=O)c1cc(-c2ccccc2)nc2ccc(C)cc12 [NEOCINCHOPHEN]
IC50 [7]: > 20 µM (inactive)

CN(C)c1cccc(C(=O)NCc2ccccc2)c1
AC50 [1]: 5.25 µM (active)

CCN(c1ccc(NC(=O)COC(=O)c2ccc3ccccc3n2)cc1)C(C)C
AC50 [8]: 39.8 µM (inconclusive) | IC50 [2]: 93.5 µM (active)

COc1cccc(CNC(=O)c2cc(S(=O)(=O)N3CCOCC3)cn2C)c1
EC50 [5]: > 112 µM (not active) | EC50 [6]: > 112 µM (not active)

COc1cccc(NC(=O)N2CCN(c3cccc(C)c3)C(C)C2)c1 (configuration not stated)
AC50 [1]: 6.28 µM (active)

CCc1nnc(NC(=O)[C@@H](NC(=O)c2ccc(OC)cc2)C(C)C)s1
EC50 [5]: > 112 µM (not active) | EC50 [6]: > 112 µM (not active)

O=C(N/N=C/c1ccc(-c2ccccc2[N+](=O)[O-])o1)[C@H]1C[C@@H]1c1ccccc1
AC50 [9]: 8.14 µM (active) | CC50 [10]: 18.3 µM (active) | EC50 [11]: 18.9 µM (active)

Cc1cccc(C)c1NC(=O)C1CCCN1S(=O)(=O)c1ccc(-c2ccc(O)nn2)s1 (configuration not stated)
EC50 [5]: > 112 µM (not active) | EC50 [6]: 47.1 µM (active)

CCOc1ccc(-c2nc(CCl)cs2)cc1
EC50 [5]: 40.7 µM (active) | EC50 [6]: > 112 µM (not active)

CC1=NN(c2ccccc2)C(=O)C1 [EDARAVONE]
AC50 [9]: 2.75 µM (active) | EC50 [11]: 2.95 µM (active)

NC(=O)c1nsc(C(=O)N(c2cccc(F)c2)C(C(=O)NC2CCCC2)c2ccco2)c1N (configuration not stated)
IC50 [7]: > 20 µM (inactive) | EC50 [12]: > 195 µM (not active)

Cc1cccc(N2CCN(C(=O)c3ccncc3)CC2C)c1 (configuration not stated)
AC50 [1]: 9.32 µM (active)

CCCc1cc(C(=O)N2CCCC(N3CCN(c4ccc(F)cc4)CC3)C2)no1 (configuration not stated)
AC50 [1]: > 100 µM (inactive)

Cc1n[nH]c(O)c1C(c1ccc(O)c(Br)c1)c1c(C)n[nH]c1O
AC50 [9]: 0.326 µM (active) | EC50 [11]: 0.232 µM (active)

N#CC(c1ccccc1)c1cnccn1 (configuration not stated)
AC50 [9]: > 380 µM (inactive) | EC50 [11]: > 380 µM (inactive)

COc1ccc2c3c([nH]c2c1)[C@H](CO)N(Cc1ccccc1F)CC31CN(C(=O)C2CCCC2)C1
AC50 [13]: 9.56 µM (active)

Cc1ccc(-c2csc(NC(=O)C[n+]3cc(-c4ccc(C)cc4)n4c3CCC4)n2)cc1
IC50 [7]: > 20 µM (inactive)

CN1CCCCN2[C@@H](CO)[C@@H](c3ccc(-c4cccnc4)cc3)[C@@H]2C1
AC50 [13]: 6.76 µM (active)

CN(CC(=O)Nc1ccccc1Oc1ccccc1)Cc1ccccc1F
EC50 [3]: > 350 µM (not active) | EC50 [4]: > 350 µM (not active)

COC(=O)Cc1cc(O)nc(Nc2nc3ccccc3o2)n1
IC50 [7]: > 20 µM (inactive)

O=C1NC(=O)/C(=C/c2ccc(OS(=O)(=O)c3ccc(F)cc3F)cc2)N1
EC50 [3]: > 350 µM (not active) | EC50 [4]: > 350 µM (not active)

COc1ccc(CN2CCNC(=O)C2CC(=O)NC2CCCC2)c(OC)c1 (configuration not stated)
EC50 [3]: > 350 µM (not active) | EC50 [4]: > 350 µM (not active)

CO[C@@H]1CN(C)C(=O)c2ccc(NC(=O)C3CCC3)cc2OC[C@@H](C)N(CC2CCCCC2)C[C@H]1C
AC50 [13]: 4.4 µM (active)

CCCOC(=O)c1ccc(OC(=O)c2ccco2)cc1
AC50 [9]: 13 µM (active) | EC50 [11]: 11.8 µM (active)

CCOC(=O)C(Cc1ccccc1)NC(=O)CNC(=O)CNC(=O)OCc1ccccc1 (stereo not drawn) (Cbz-Gly-Gly-[ξF]-OEt)
EC50 [5]: > 112 µM (not active) | EC50 [6]: 25 µM (active)

COc1cccc(-n2c(S)nnc2CCn2nc(C)c([N+](=O)[O-])c2C)c1
AC50 [1]: 10.6 µM (active)

Oc1cccc(Nc2nc(-c3ccccc3Cl)nc3ccccc23)c1
AC50 [9]: 138 µM (active) | CC50 [10]: 27.1 µM (active) | EC50 [11]: > 380 µM (inactive)

N#CC1=C(N)Oc2[nH]nc(-c3cccs3)c2C1c1ccncc1 (configuration not stated)
AC50 [9]: 31 µM (active) | EC50 [11]: 5.36 µM (active)

Cc1cccc(-c2noc(CN(C)S(=O)(=O)c3cc(Cl)ccc3Cl)n2)c1
EC50 [3]: > 350 µM (not active) | EC50 [4]: > 350 µM (not active)

COc1ccc(C2C(C#N)=C(N)Nc3onc(C(C)(C)C)c32)c(OC)c1 (configuration not stated)
IC50 [2]: > 100 µM (active)

COc1ccc(NC(=O)Nc2ccc3c(c2)CC(=O)N([C@@H](C)CO)C[C@@H](C)[C@H](CN(C)CC2CCCCC2)O3)cc1
AC50 [13]: 4.85 µM (active)

Cc1cccc(NC(=O)c2ccc(NCCO)c([N+](=O)[O-])c2)n1
EC50 [5]: > 112 µM (not active) | EC50 [6]: 25.5 µM (active)

Cc1ccc2cc(CN(Cc3ccco3)C(=O)C3CCCCC3)c(O)nc2c1C
EC50 [5]: > 112 µM (not active) | EC50 [6]: > 112 µM (not active)
